Assays:
[1] = molecular target: Sodium-dependent serotonin transporter (Rattus norvegicus, UniProt P31652); experiment: Displacement of [3H]paroxetine from serotonin transporter in rat brainstem after 120 mins by liquid scintillation counting analysis; format: tissue-based
[2] = organism: Rattus norvegicus; experiment: Selectivity ratio of Ki for rat brain sigma1 receptor to Ki for rat brain sigma2 receptor
[3] = Displacement of [3H]nisoxetine from norepinephrine transporter in rat cerebral cortex after 120 mins by liquid scintillation counting analysis; format: tissue-based
[4] = molecular target: Sigma non-opioid intracellular receptor 1 (Rattus norvegicus, UniProt Q9R0C9); experiment: Displacement of [3H](+)-pentazocine from sigma1 receptor in rat brain after 120 mins by liquid scintillation counting analysis; format: tissue-based
[5] = molecular target: Sodium-dependent dopamine transporter (Rattus norvegicus, UniProt P23977); experiment: Displacement of [3H]WIN 35428 from dopamine transporter in rat striatum after 120 mins by liquid scintillation counting analysis
[6] = molecular target: D(2) dopamine receptor (Rattus norvegicus, UniProt P61169); experiment: Displacement of [3H](-)-sulpiride from dopamine D2 receptor in rat brain after 120 mins by liquid scintillation counting analysis; format: tissue-based
[7] = Binding affinity to rat opioid receptor after 120 mins by radioligand displacement assay
[8] = Displacement of [3H]di-o-tolylguanidine from sigma2 receptor in rat brain after 120 mins by liquid scintillation counting analysis; format: tissue-based
[9] = Displacement of [3H]TCP from N-methyl D-aspartate receptor phencyclidine binding site in rat brain after 120 mins by liquid scintillation counting analysis; format: tissue-based
[10] = molecular target: 5-hydroxytryptamine receptor 2A (Rattus norvegicus, UniProt P14842); experiment: Displacement of [3H]ketanserin from 5-HT2 receptor in rat brain after 120 mins by liquid scintillation counting analysis; format: tissue-based
[11] = organism: Rattus norvegicus; experiment: Selectivity ratio of Ki for rat brain sigma1 receptor to Ki for rat striatum dopamine transporter; format: tissue-based

Sequence of Sodium-dependent serotonin transporter (P31652 whole entry): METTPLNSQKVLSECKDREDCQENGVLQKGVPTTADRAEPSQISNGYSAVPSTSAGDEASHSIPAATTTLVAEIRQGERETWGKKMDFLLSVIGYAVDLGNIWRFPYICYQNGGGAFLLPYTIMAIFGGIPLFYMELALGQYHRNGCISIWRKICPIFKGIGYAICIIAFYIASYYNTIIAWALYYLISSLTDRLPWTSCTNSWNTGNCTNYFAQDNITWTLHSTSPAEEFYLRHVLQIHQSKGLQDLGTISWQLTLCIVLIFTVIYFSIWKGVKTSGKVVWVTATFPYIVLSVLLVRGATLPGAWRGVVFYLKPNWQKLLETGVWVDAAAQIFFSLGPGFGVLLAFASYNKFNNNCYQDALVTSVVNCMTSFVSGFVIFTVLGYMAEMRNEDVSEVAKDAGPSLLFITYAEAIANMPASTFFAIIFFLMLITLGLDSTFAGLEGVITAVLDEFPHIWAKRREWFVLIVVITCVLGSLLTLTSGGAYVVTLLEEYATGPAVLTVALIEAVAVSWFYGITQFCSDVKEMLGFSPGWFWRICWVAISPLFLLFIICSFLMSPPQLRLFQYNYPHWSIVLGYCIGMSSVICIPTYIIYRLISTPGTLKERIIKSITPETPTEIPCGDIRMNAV
Sequence of 5-hydroxytryptamine receptor 2A (P14842 whole entry): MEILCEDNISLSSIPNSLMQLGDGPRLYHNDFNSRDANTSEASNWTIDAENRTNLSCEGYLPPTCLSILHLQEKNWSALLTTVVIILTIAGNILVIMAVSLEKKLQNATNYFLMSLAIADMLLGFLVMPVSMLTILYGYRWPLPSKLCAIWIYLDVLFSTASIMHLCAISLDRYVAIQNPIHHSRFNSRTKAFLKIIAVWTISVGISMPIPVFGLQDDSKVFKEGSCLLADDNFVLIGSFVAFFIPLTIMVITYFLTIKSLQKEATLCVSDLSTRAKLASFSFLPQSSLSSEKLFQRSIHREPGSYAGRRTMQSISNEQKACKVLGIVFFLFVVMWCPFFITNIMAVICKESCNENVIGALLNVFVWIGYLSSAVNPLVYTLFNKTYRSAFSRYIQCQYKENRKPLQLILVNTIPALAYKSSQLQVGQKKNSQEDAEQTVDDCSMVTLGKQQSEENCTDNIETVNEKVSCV
Sequence of Sodium-dependent dopamine transporter (P23977 whole entry): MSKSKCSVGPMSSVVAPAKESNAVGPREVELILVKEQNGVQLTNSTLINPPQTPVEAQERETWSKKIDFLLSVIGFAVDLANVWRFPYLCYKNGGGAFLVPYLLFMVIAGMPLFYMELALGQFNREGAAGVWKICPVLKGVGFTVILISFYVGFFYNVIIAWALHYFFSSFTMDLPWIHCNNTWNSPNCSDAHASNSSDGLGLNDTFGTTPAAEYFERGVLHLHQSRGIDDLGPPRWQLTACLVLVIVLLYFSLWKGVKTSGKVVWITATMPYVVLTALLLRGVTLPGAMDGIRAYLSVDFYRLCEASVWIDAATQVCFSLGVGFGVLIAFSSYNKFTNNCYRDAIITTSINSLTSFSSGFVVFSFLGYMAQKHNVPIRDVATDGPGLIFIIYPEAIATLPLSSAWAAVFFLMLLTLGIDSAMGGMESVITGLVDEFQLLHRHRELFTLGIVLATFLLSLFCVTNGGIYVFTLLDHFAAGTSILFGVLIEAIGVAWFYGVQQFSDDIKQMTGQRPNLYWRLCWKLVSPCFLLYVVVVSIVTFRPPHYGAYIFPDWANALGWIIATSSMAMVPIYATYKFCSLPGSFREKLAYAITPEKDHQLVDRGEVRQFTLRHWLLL
Sequence of D(2) dopamine receptor (P61169 whole entry): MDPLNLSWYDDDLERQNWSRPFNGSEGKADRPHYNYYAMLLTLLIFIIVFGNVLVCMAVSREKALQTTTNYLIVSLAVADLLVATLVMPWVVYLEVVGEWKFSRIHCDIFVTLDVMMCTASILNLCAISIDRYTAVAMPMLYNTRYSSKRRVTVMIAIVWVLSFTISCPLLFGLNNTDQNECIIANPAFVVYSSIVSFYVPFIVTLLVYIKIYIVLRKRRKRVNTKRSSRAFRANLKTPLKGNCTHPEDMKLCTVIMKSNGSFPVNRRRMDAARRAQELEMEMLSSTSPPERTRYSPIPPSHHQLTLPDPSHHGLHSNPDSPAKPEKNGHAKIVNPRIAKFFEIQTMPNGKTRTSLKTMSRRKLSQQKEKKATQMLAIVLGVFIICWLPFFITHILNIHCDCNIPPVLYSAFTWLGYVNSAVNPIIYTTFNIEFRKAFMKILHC
Sequence of Sigma non-opioid intracellular receptor 1 (Q9R0C9 whole entry): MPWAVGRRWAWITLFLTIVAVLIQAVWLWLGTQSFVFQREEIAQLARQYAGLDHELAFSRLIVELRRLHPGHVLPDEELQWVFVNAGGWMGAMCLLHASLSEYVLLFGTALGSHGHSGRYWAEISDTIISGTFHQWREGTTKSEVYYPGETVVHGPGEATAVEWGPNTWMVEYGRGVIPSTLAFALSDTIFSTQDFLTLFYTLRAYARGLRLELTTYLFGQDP

## Clc1cccc(N2CCN(CCCc3ccccc3)CC2)c1
[1]
  Ki: 488 nM
[2]
  Ratio Ki: 0.39
[3]
  Ki: > 10000 nM
[4]
  Ki: 4.93 nM
[5]
  Ki: > 10000 nM
[6]
  Ki: 128 nM
[7]
  Ki: > 10000 nM
[8]
  Ki: 12.6 nM
[9]
  Ki: > 10000 nM
[10]
  Ki: 498 nM

## c1ccc(CCCN2CCN(c3ccccn3)CC2)cc1
[1]
  Ki: > 10000 nM
[2]
  Ratio Ki: 16.7
[3]
  Ki: > 10000 nM
[5]
  Ki: 9150 nM
[6]
  Ki: 940 nM
[7]
  Ki: > 10000 nM
[8]
  Ki: 4.9 nM
[11]
  Ratio Ki: 0.009
[9]
  Ki: > 10000 nM
[10]
  Ki: 1240 nM

## Clc1ccccc1N1CCN(CCc2ccccc2)CC1
[1]
  Ki: > 10000 nM
[2]
  Ratio Ki: 0.003
[3]
  Ki: 790 nM
[4]
  Ki: 0.15 nM
[5]
  Ki: 0.13 nM
[6]
  Ki: 67 nM
[7]
  Ki: 4830 nM
[8]
  Ki: 56.3 nM
[11]
  Ratio Ki: 1.15
[9]
  Ki: > 10000 nM
[10]
  Ki: 484 nM

## Clc1ccc(N2CCN(CCc3ccccc3)CC2)cc1
[1]
  Ki: 372 nM
[2]
  Ratio Ki: 0.056
[3]
  Ki: > 10000 nM
[4]
  Ki: 1.85 nM
[5]
  Ki: 6 nM
[6]
  Ki: 834 nM
[7]
  Ki: > 10000 nM
[8]
  Ki: 33.3 nM
[11]
  Ratio Ki: 0.31
[9]
  Ki: > 10000 nM
[10]
  Ki: 518 nM

## Clc1ccc(N2CCN(CCCc3ccccc3)CC2)cc1
[1]
  Ki: 1100 nM
[2]
  Ratio Ki: 0.011
[3]
  Ki: > 10000 nM
[4]
  Ki: 0.12 nM
[5]
  Ki: 2650 nM
[6]
  Ki: 660 nM
[7]
  Ki: > 10000 nM
[8]
  Ki: 10.9 nM
[11]
  Ratio Ki: 4.5e-05
[9]
  Ki: > 10000 nM
[10]
  Ki: 391 nM

## Clc1cccc(N2CCN(CCc3ccccc3)CC2)c1
[1]
  Ki: 802 nM
[2]
  Ratio Ki: 0.079
[3]
  Ki: 1110 nM
[4]
  Ki: 6.47 nM
[5]
  Ki: 0.04 nM
[6]
  Ki: 327 nM
[7]
  Ki: > 10000 nM
[8]
  Ki: 82.3 nM
[11]
  Ratio Ki: 162
[9]
  Ki: > 10000 nM
[10]
  Ki: 53 nM

## Clc1ccccc1N1CCN(CCCc2ccccc2)CC1
[1]
  Ki: 409 nM
[2]
  Ratio Ki: 0.072
[3]
  Ki: > 10000 nM
[4]
  Ki: 0.56 nM
[5]
  Ki: 482 nM
[6]
  Ki: 77 nM
[7]
  Ki: 4600 nM
[8]
  Ki: 7.79 nM
[11]
  Ratio Ki: 0.0012
[9]
  Ki: > 10000 nM
[10]
  Ki: 952 nM

— ChEMBL document CHEMBL3091341, “Chlorophenylpiperazine analogues as high affinity dopamine transporter ligands” (Bioorg Med Chem Lett, 2013)
